Measurements: patent US20260028404A1 (UNIVERSITY OF KANSAS, priority 2022, published 2026)

Assays:
Clone M3 tumors = assay: Cloudman M3 (Clone M3) melanoma model; assay type: in vivo, DBA/2N mice; conditions: through 21 days; 2 mg GA IT x5, 10 mg/kg antibody IP x3
Experimental: Mice were randomized into treatment groups when tumors reached mean volumes of 50-80 mm^3 at Day 7.
Treatment groups consisted of vehicle control (n=7, 4% mannitol IT plus 10 mg/kg isotype control antibody IP), anti-PD1 alone (n=5, 4% mannitol IT plus 10 mg/kg anti-PD1 IP), GA alone (2 mg GA IT plus 10 mg/kg isotype control IP), or GA+anti-PD1 combination (n=5, 2 mg GA IT plus 10 mg/kg anti-PD1 IP). Intratumoral treatments were administered 5 times at a frequency of 3 times per week and 50 μL per injection beginning on Day 7. Intraperitoneal antibody was given beginning on Day 7 as well, but for a total of 3 times on a frequency of every 3-4 days.
Primary tumors were measured by caliper measurement. Tumor sizes were
calculated according to the formula (W^2×L)/2. Animals were euthanized when any tumor diameter dimension exceeded 1.8 cm.

[1] = in vivo; cited from earlier work
EAE = conditions: mice; cited from earlier work
[2] = in vitro; cited from earlier work
[3] = test system: differentially expressed genes; assay: CT26 tumor RNA sequencing; assay type: in vivo, BALB/c mice; conditions: intratumoral GA treatment
Experimental: RNA isolation: RNA was isolated from the tumor as previously described. 22.83Briefly, tumor pieces were stored in RNAlater solution at room temperature for at least one day and then at 4° C. until RNA isolation. Tumor pieces were removed from RNAlater solution and homogenized in 10 mL TRIzol reagent (38% phenol, 0.8 M guanidine thiocyanate, 0.4 M ammonium thiocyanate, 0.1 M sodium acetate, 5% glycerol). Homogenate was divided into 1 mL, 100 μl BCP (Molecular Research Center #BP 151, Cincinnati, OH) was added, shaken vigorously 15 seconds and centrifuged 12,000×g, 10 minutes, 4° C. […] RNA was quantified by Qubit™ using the RNA High Sensitivity Assay Kit (Invitrogen™ #Q32852, Thermo Fisher Scientific Corporation, Eugene, OR) and RNA quality was analyzed using the Agilent 2200 TapeStation (Waldbronn, Germany).
RNA sequencing: The mRNA library preparation was performed with the NEBNext® Stranded mRNA library kit (New England Biolabs, Inc. #E7760, Ipswich, MA), tagged with a unique dual index sequence, and qPCR quantification of the library pool was performed before sequencing. Sequencing was performed on an Illumina NextSeq2000 P3 with single read 75 bp read lengths (KU Genome Sequencing Core). The reads were aligned with Mus musculus UCSC mm9 reference genome using RNA-Seq Alignment workflow (2.0.2, Illumina, San Diego, CA). […]

[4] = mouse, in vivo; cited from earlier work
AT84 tumors = assay: AT84 orthotopic head and neck tumor study; assay type: in vivo, C3H mice; conditions: intratumoral 300 μg GA, 75 μg CpG or R4 every three days x5; anti-PD-1 250 μg i.p. every three days
Description: AT84 cells were derived from a spontaneous sarcomatoid carcinoma in the oral mucosa of a C3H mouse and were graciously donated by Aldo Venuti (Regina Elena National Cancer Institute, Rome, Italy). Cells tested negative for interspecies contamination (Idexx BioResearch) and rodent pathogens (21 pathogen IMPACT I PCR profile), and negative for Mycoplasm contamination prior to animal studies (Lonza, MycoAlert test kit). Idexx CellCheck STR (short tandem repeat) profile: MCA-4-2: 20.3, 21.3; MCA-5-5: 15; MCA-6-4: 18, 19; MCA-6-7: 12; MCA-9-2: 15; MCA-12-1: 16; MCA-15-3: 25.3, 26.3; MCA-18-3: 16; MCA-X-1: 26, 27.
4% mannitol was prepared by dissolving D-mannitol (Fisher BioReagents® #M120, Fair Lawn, NJ) in molecular biology grade water (Corning #46-000, Manassas, VA) and sterile filtered through a 0.22 μm PES membrane filter (Millex®-GP #SLGPR33RS, Merck Millipore Ltd., Tullagreen, Carrigtwohill). 1 ml syringe stocks of 20 mg/mL GA (Copaxone®, TEVA Neuroscience, Inc., Overland Park, KS) were donated by The University of Kansas Medical Center. CpG ODN 1826 was purchased from InvivoGen (#tlrl-1826, San Diego, CA) and was resuspended in LAL water to obtain 3.17 mg/mL (500 μM) stocks following manufacture's protocol. All subsequent dilutions were performed using 4% mannitol. R4 polyplexes were prepared as previously described (Pressnall et al). […]

[5] = in vivo; cited from earlier work; remark: listed apart in the source

Glatiramer acetate [GA]
mouse survival (not exceeding 1750 mm^3 tumor volume or 1.8 cm diameter) (Clone M3 tumors): three of five | localization after injection [1]: primarily localized at the site of injection | effect on EAE (EAE): suppress EAE | aggregation in the presence of hyaluronic acid (HA) [2]: form aggregates and precipitate in the presence of HA | gene expression in the tumors [3]: little discernable effect on gene expression | aggregate formation near the injection site [4]: formed spherical aggregates near the injection site | tumor growth (AT84 tumors): no effect | systemic exposure [5]: negligible systemic exposure
